Reference: patent US5686458A, “Quinazoline deriviates for treating peptic ulcer” (Yuhan Corporation, priority 1992, dated 1997)
Values joined by “and” are separate entries in the source; they are usually repeats but may differ in a detail not shown here. Equal values may be shown once. Read-outs that look alike come from different tables or passages of the source.

Experiments:
[1] = target: T1, Proton Pump (H^+ /K^+ ATPase) (Oryctolagus cuniculus, UniProt P27112); test: Inhibition of Proton Pump (H+/K+ ATPase) Activity, in vitro enzyme reaction (Experiment 1); type: biochemical, New Zealand white rabbit
T1 construct: The microsomes thus obtained were used as an enzyme source of the in vitro enzyme reaction study of proton pump; from tissue; host or cells: rabbit stomach, mucosal scrapings, microsomes (180,000 g pellet)
In short: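 Rabbit gastric mucosal microsomes (100 μg/ml) in 50 mM Tris-HCl pH 7.2 with 8 mM MgCl2, 100 mM KCl and 20 mM NH4Cl were preincubated with compound for 15 min at 37 °C. Reaction ran 30 min at 37 °C with 6.7 mM ATP; released phosphate was measured. K+-stimulated activity (Mg/K minus Mg alone) gave IC50 via Litchfield-Wilcoxon.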

proton pump = conditions: background statement; cited from earlier work
[2] = test system: gastric secretion stimulated by pentagastrin; test: Inhibition of gastric secretion stimulated by pentagastrin (Experiment 3-2); type: in vivo, Sprague-Dawley male rats; conditions: intravenous; for ED50: Rattus norvegicus
Procedure: The same procedures as in Experiment 3-1 were carried out, except that as a secretion stimulating substance, pentagastrin was infused into the left jugular vein of the rats at a dosage of 24 μg/2 ml/200 g/hr.

gastric secretion = test: Inhibition of Gastric Secretion, pylorus-ligated rats (Experiment 2); type: in vivo, Sprague-Dawley rats; conditions: relative to omeprazole (equation III), 20 mg/kg intraduodenally, pylorus-ligated rats, 5 hours
In short: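 Sprague-Dawley rats (170±10 g, n=5/group), fasted 24 h, pylorus-ligated under ether; compounds given intraduodenally at 20 mg/kg in 30% aqueous PEG 400. Gastric juice collected after 5 h, volume and acidity measured; relative volume, acid concentration and acid output computed versus vehicle and omeprazole groups.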

T1 sequence (P27112 whole entry): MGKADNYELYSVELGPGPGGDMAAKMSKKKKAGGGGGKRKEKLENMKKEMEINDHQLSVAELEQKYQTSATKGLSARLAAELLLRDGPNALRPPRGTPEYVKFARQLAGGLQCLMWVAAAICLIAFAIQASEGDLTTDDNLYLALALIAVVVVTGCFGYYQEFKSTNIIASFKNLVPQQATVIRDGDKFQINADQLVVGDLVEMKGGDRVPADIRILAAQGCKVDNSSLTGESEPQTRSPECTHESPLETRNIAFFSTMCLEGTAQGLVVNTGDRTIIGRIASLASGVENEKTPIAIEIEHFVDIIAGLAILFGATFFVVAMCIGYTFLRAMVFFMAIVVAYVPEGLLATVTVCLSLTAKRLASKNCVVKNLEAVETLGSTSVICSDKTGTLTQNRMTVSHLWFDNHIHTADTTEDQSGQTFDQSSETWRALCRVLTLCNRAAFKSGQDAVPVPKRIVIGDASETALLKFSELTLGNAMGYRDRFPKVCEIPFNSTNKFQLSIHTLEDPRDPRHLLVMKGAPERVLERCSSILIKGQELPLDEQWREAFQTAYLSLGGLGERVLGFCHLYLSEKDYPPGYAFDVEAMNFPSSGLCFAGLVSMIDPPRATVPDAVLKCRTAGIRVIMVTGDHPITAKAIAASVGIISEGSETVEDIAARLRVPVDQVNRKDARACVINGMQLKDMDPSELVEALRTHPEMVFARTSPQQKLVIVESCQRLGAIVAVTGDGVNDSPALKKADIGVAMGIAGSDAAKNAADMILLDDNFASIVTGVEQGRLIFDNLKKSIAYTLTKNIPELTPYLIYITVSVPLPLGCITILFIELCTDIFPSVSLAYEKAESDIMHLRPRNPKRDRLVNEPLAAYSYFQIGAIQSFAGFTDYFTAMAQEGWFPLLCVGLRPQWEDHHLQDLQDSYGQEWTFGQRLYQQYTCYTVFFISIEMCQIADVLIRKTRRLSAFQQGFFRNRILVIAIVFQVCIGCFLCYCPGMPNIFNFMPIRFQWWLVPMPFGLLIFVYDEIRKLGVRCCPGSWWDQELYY
T1 sequence (P18597 whole entry partner): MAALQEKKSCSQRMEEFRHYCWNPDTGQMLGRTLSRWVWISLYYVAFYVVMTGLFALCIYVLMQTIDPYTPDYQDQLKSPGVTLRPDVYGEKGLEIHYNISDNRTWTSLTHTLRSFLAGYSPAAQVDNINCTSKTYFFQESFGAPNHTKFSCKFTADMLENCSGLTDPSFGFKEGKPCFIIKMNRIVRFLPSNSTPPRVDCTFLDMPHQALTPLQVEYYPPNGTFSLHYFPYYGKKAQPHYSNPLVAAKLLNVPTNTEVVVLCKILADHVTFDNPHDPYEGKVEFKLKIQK

Effect ratio ([1]; IC50 of Omeprazole / IC50 of test compound) | IC50 ([1]; K+-stimulated H+/K+ ATPase activity, rabbit gastric microsomes, pH 7.2, 37° C., 15 min prereaction, 30 min reaction, read-out: IC50 of test compound, inhibition (50%) of the proton pump activity) | Compound | IC50 ([1]; comparative compound, value printed on the line of each test compound, read-out: IC50 of Omeprazole, inhibition (50%) of the proton pump activity) | Reversibility of the proton pump inhibition (proton pump) | The gastric secretion inhibition ([2]; 0.3 mg/kg) | The gastric secretion inhibition ([2]; 0.5 mg/kg) | The gastric secretion inhibition ([2]; 1.0 mg/kg) | ED50 [2] | The gastric secretion inhibition ([2]; 3.0 mg/kg) | The gastric secretion inhibition ([2]; 5.0 mg/kg) | Relative Acid Output (gastric secretion)
– | – | COc1ccc2[nH]c([S+]([O-])Cc3ncc(C)c(OC)c3C)nc2c1 (stereo not shown) [Omeprazole, omeprazole, reference compound] | 9.5 µM and 9.3 µM | irreversible | 5.0% | 63.1% | 114.3% | 0.47 mg/kg | – | – | –
5.45 | 1.7 µM | COc1cccc2c(N3CCc4ccccc4C3C)nc(Nc3ccc(F)cc3C)nc12.Cl (stereo not shown) [Example 34, 8-Methoxy-2-(4-Fluoro-2-Methyl-Phenylamino)-4-(1-Methyl-1,2,3,4-Tetrahydroisoquinoline-2-Yl)Quinazoline Hydrochloride] | – | – | – | – | 41.2% | 1.31 mg/kg | 77.0% | 110.2% | 0.97
